Test results published in patent US11535632B2, “Solid forms of an S1P-receptor modulator” (ESCAPE Bio, Inc., priority 2019, dated 2022).
Entries after “also recorded” stand apart in the source; their conditions may differ.

Assays:
Type in all cases: physicochemical
[1] = Solid state stability study
Excerpt: The two lots of Compound 1 were characterized by HPLC, PLM, XRPD, DSC, TGA, and KF. […] According to the stability study at different conditions, the two forms of compound were practically stable at different humidity for at least 4 weeks, with no XRPD pattern change and no growth of impurities were found.

[2] = Storage for one week at controlled temperature/humidity, XRPD
Description: PLM images obtained of the particles show them to be a mixture of laths and larger aggregates typical of an uncontrolled antisolvent crystallization. A peak corresponding to 0.16 molar equivalents of acetic acid is present in the ^1H-NMR spectrum. […] It is evident from the corresponding DSC thermogram that this mass loss coincides with melting of the material (endotherm at 237.7° C.).

[3] = Gravimetric vapor sorption (GVS)
Description: Sorption isotherms were obtained using a SMS DVS Intrinsic moisture sorption analyzer, controlled by DVS Intrinsic Control software. The sample temperature was maintained at 25° C. by the instrument controls. The humidity was controlled by mixing streams of dry and wet nitrogen, with a total flow rate of 200 ml/min. The relative humidity was measured by a calibrated Rotronic probe (dynamic range of 1.0-100% RH), located near the sample. The weight change, (mass relaxation) of the sample as a function of % RH was constantly monitored by a microbalance (accuracy ±0.005 mg).
Typically, 5-30 mg of sample was placed in a tared mesh stainless steel basket under ambient conditions. The sample was loaded and unloaded at 40% RH and 25° C. (typical room conditions). A moisture sorption isotherm was performed as outlined below (2 scans per complete cycle). The standard isotherm was performed at 25° C. at 10% RH intervals over a 0-90% RH range. Typically, a double cycle (4 scans) was carried out. Data analysis was carried out within Microsoft Excel using the DVS Analysis Suite.

[4] = Competitive slurries of Form B and C in process relevant solvents
Description: Determination of the relative stabilities of Form B and Form C was undertaken to identify which material was more thermodynamically stable in process relevant solvents. As a suspected solvate was isolated from experiments where DMAC was used as a solvent, only DMSO and acetic acid were determined to be appropriate process solvents. Combinations of these solvents with relevant antisolvents were therefore selected for the competitive slurry experiments.
Compound 1 (from Example 2) was dispensed into HPLC vials. To these, 1 ml of selected solvents was subsequently added to give a suspension. Materials were slurried for 72 hours at 90° C., 50° C. or 25° C. with 500 rpm stirring. Material was subsequently isolated by centrifugation and analyzed by XRPD.

Water activity study = assay: Water activity study
Description: About 15 mg of Form A and 15 mg of Form B were added to the saturated solutions of different water activities and equilibrated at 25° C. and 50° C. for 4 days, respectively. The resulting suspensions were filtered, and the solid parts (wet cake) were investigated by XRPD to determine the polymorph.
According to XRPD results, Form B was obtained in methanol/water with water activity (a.w.) ranging from 0.1 to 0.9 at 25° C., as shown in FIGS. 20A-20B. At 50° C., Form B was obtained in methanol/water with a.w. ≥0.2, whereas a mixture of Form A and Form B was obtained in a.w. […] The water activity of the binary solvent system was calculated based on UNIFAC method (UNIQUAC Functional-group Activity Coefficients).

[5] = Variable temperature XRPD; conditions: heated in situ to 150° C. at 10° C./min; new form denoted Form E
Description: For variable temperature (VT-XRPD) experiments the samples were prepared and analysed in an Anton Paar chromed sample holder with silicon wafer insert. A heating/cooling rate of 10° C./min was used with a 2 min isothermal hold before the measurement started. The measurement parameters are as per the standard screening data collection method (detailed above). Measurements were taken at the following temperatures: 25° C., 150° C. and 25° C.
Compound 1 Form B was analyzed using the Empyrean XRPD at a temperature of 25° C. The sample was then heated in situ using the variable temperature stage to 150° C. at a ramp rate of 10° C./min and held isothermally for 2 minutes whereupon a second XRPD measurement was made. The sample was then cooled to 25° C. at a ramp rate of 10° C./min held isothermally for 2 minutes whereupon a third XRPD measurement was made.

In the case of O=C(O)[C@H]1C[C@@H](N2CCc3oc(-c4ccc(OCc5ccc(Cl)cc5)cc4)nc3C2)C1 [Form B, (1s,3s)-3-(2-(4-((4-chlorobenzyl)oxy)phenyl)-6,7-dihydrooxazolo[4,5-c]pyridin-5(4H)-yl)cyclobutane-1-carboxylic acid], the “Crystallinity (XRPD & PLM)” value ([1]; 4 weeks, 25° C./60% RH) is reported as “Crystalline”, the Purity ([1]; 4 weeks, 25° C./60% RH) is reported as 99.55% and the “Weight loss (TGA) (~120° C.)” value ([1]; 4 weeks, 25° C./60% RH) is reported as 2.374%. The “Crystallinity (XRPD & PLM)” value ([1]; 4 weeks, 40° C./75% RH) was “Crystalline”, the Purity ([1]; 4 weeks, 40° C./75% RH) was 99.55% and the “Weight loss (TGA) (~120° C.)” value ([1]; 4 weeks, 40° C./75% RH) was 2.319%. For the same compound, the “Crystallinity (XRPD & PLM)” value ([1]; 6 weeks, 25° C./60% RH) was “Crystalline”, the Purity ([1]; 6 weeks, 25° C./60% RH) was 99.54% and the Water content ([1]; 6 weeks, 25° C./60% RH) was 3.361%. For the same compound, the “Weight loss (TGA) (~120° C.)” value ([1]; 6 weeks, 25° C./60% RH) was 2.364%, the “Crystallinity (XRPD & PLM)” value ([1]; 6 weeks, 40° C./75% RH) was “Crystalline” and the Purity ([1]; 6 weeks, 40° C./75% RH) was 99.53%. The Water content ([1]; 6 weeks, 40° C./75% RH) was 3.301%, the “Weight loss (TGA) (~120° C.)” value ([1]; 6 weeks, 40° C./75% RH) was 2.276% and the “Crystallinity (XRPD & PLM)” value ([1]; 8 weeks, 25° C./60% RH) was “Crystalline”. The Purity ([1]; 8 weeks, 25° C./60% RH) was 99.54%, the Water content ([1]; 8 weeks, 25° C./60% RH) was 3.830% and the “Weight loss (TGA) (~120° C.)” value ([1]; 8 weeks, 25° C./60% RH) was 2.943%. For the same compound, the “Crystallinity (XRPD & PLM)” value ([1]; 8 weeks, 40° C./75% RH) was “Crystalline”, the Purity ([1]; 8 weeks, 40° C./75% RH) was 99.55% and the Water content ([1]; 8 weeks, 40° C./75% RH) was 3.494%. For the same compound, the “Weight loss (TGA) (~120° C.)” value ([1]; 8 weeks, 40° C./75% RH) was 3.809%, the “Crystallinity (XRPD & PLM)” value ([1]; Initial) was “Crystalline” and the Purity ([1]; Initial) was 99.54%. For the same compound, the Water content ([1]; Initial) was 3.677%, the “Weight loss (TGA) (~120° C.)” value ([1]; Initial) was 2.233% and the XRPD after storage ([2]; 25° C./97% RH for one week) was “did not result in changes to material as measured by XRPD; also recorded: Unchanged by XRPD”. The XRPD after storage ([2]; 40° C./75% RH for one week) was “did not result in changes to material as measured by XRPD; also recorded: Unchanged by XRPD”, the “XRPD post GVS analysis” value [3] was “Unchanged by XRPD post analysis; also recorded: Sample unchanged by XRPD” and the “Relative humidity at which the monohydrate is stable” value ([3]; readily rehydrates after water loss) was greater than 20 % RH. The Relative thermodynamic stability ([4]; acetic acid mixtures and temperatures investigated) was “more thermodynamically stable than Form C”, the Relative thermodynamic stability ([4]; majority of experimental conditions assessed) was “more thermodynamically stable than Form C” and the “critical water activity between Form A and Form B” value (Water activity study; 25° C., methanol/water) was “less than 0.1”. For the same compound, the “Relative stability of forms” value (Water activity study; ambient condition) was “more stable than Form A” and the XRPD after heating [5] was “change in Form by XRPD”.
